Reference: patent US11834453B2, “Substituted pyrimido[5,4-d]pyrimidines as HER2 inhibitors” (Array BioPharma Inc., priority 2020, dated 2023)

Key:
MDR1 (P-gp) = MDR1 (P-gp) (Homo sapiens (Human), UniProt P08183); test: MDR1 transfected MDCKII canine Mdr1 knockout permeability/efflux, Assay 7; details: dog, MDCK-MDR1
Procedure: Both MDR1 transfected LLC-PK1 (Assay 6) and MDR1 transfected MDCKII canine Mdr1 knockout cells (Assay 7) were cultured and plated according to manufacturer's recommendations with the exception that the passage media for the MDR1 transfected LLC-PK1 cell line contained only 2% fetal bovine serum so as to extend passage time out to seven days.
(§1) Both positive and negative controls were used to assess functionality of P-gp or BCRP efflux in the assays. Stock solutions for assay controls and the test article were prepared in DMSO for final test concentration of 1 μM. Final organic concentration in the assay was 1%. All dosing solutions contained 10 μM lucifer yellow to monitor MDCKII cell monolayer integrity.
(§2) For the apical to basolateral determination (A to B), 75 μL of the test article in transport buffer were added to the apical side of the individual transwells and 250 μL of basolateral media, without compound or lucifer yellow, were added to each well. For the basolateral to apical determination (B to A), 250 μL of test article in transport buffer were added to each well and 75 μL transport buffer, without compound or lucifer yellow, were added to each transwell. All tests were performed in triplicate, and each compound was tested for both apical to basolateral and basolateral to apical transport. The plates were incubated for 2 hours on a Lab-Line Instruments Titer Orbital Shaker (VWR, West Chester, PA) at 50 rpm and 37° C. with 5% CO2. All culture plates were removed from the incubator, 50 μL of media were removed from the apical and basolateral portion of each well, and added to 150 μL of 1 μM labetalol in 2:1 acetonitrile (ACN): H2O, v/v.
The plates were read using a Molecular Devices (Sunnyvale, CA) Gemini Fluorometer to evaluate the lucifer yellow concentrations at excitation/emission wavelengths of 425/535 nm. These values were accepted when found to be below 2% for apical to basolateral and 5% basolateral to apical flux across the MDR1-transfected LLC-PK1 or BCRP-transfected MDCKII cell monolayers. The plates were sealed, and the contents of each well analyzed by LC MS/MS. The compound concentrations were determined from the ratio of the peak areas of the compound to the internal standard (labetalol) in comparison to the dosing solution.
(§3) A MDS Sciex API 4000 (Applied Biosystems, Foster City, CA) mass spectrometer was used for detection of the analytes in the ion spray positive mode. Analyte responses were measured by multiple reaction monitoring (“MRM”) of transitions unique to each compound (the protonated precursor ion and selected product ions for each test article and m/z 329 to m/z 162 for labetalol, the internal standard.
(§4) The total run time, including re-equilibration, for a single injection was 1.2 minutes. […] The total run time, including re-equilibration, for a single injection was 0.61 minutes.
(§5) An efflux ratio is calculated from the mean apical to basolateral (A-B) Papp data and basolateral to apical (B-A) Papp data: Efflux ratio=Papp(B−A)/Papp(A−B)

[1] = target: ErbB2 with Exon 20 YVMA insertion (HER2-YVMA) (Homo sapiens (Human), UniProt P04626, INS775YVMA); test: Cellular phosphorylation assay, constitutive ErbB2 phosphorylation (Y1196) in engineered NIH 3T3 cells, Assay 4; assay type: cell-based
Outline: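 Engineered NIH 3T3 cells expressing HER2-YVMA treated with compounds 1 h at 37 °C, then formaldehyde-fixed and methanol-permeabilized. pErbB2 Y1196 detected by in-cell infrared immunofluorescence, normalized to GAPDH. IC50 from the normalized curves.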

EGFR wild type (EGFR WT) = EGFR wild type (EGFR WT) (Homo sapiens (Human), UniProt P00533); test: Cellular phosphorylation assay, EGF-stimulated EGFR phosphorylation in engineered NIH 3T3 cells, Phospho-EGFR DuoSet IC ELISA, Assay 5; assay type: cell-based
Outline: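 NIH 3T3 cells expressing EGFR WT (20,000/well, attached overnight) were exposed to serially diluted compound for 1 h at 37 °C, then stimulated with 100 ng/ml rEGF for 10 min. Phospho-EGFR in lysates measured by sandwich ELISA optical density; IC50 from curves.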

EGFR = EGFR (Homo sapiens (Human), UniProt P00533); test: ErbB enzyme assay (CisBio HTRF KinEASE-TK), Assay 3; assay type: biochemical
EGFR, sequence (P00533 25-1210): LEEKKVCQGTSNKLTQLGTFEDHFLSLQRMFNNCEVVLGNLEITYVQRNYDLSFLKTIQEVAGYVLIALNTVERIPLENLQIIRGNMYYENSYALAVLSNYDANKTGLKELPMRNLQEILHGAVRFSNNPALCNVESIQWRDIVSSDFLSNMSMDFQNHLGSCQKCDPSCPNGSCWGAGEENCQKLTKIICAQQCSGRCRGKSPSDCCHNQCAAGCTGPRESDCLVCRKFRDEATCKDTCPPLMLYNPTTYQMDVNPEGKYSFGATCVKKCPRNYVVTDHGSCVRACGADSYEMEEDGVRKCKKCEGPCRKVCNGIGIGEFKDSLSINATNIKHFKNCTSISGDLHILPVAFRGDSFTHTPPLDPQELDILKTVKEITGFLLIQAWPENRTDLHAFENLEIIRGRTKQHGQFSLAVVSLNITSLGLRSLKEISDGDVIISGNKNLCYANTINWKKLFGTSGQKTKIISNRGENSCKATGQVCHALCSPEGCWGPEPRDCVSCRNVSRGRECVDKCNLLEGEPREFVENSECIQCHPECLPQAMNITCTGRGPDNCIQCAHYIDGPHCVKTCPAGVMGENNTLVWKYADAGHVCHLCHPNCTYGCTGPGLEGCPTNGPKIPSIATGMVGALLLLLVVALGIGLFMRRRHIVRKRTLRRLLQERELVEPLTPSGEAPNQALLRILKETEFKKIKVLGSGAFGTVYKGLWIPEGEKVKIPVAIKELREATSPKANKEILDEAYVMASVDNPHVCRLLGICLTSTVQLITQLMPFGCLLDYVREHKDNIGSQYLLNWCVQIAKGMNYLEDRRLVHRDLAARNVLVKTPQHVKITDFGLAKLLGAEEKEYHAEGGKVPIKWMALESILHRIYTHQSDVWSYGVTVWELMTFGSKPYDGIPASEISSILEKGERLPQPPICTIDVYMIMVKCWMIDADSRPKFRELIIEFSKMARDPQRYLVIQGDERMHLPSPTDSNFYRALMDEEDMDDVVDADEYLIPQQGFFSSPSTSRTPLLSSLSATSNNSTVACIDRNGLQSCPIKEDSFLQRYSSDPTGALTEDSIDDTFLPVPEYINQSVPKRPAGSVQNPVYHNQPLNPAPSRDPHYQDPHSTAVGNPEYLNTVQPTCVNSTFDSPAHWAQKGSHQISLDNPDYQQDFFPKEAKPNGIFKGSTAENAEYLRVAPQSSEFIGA
Outline: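 Kinase + 250 nM biotin TK-substrate, 1 mM ATP, cpd (3-fold dil.), HEPES pH 7.4/10 mM MgCl2/0.01% Triton/2% DMSO; 30 min 22 °C. Quench w/ Sa-XL665 + TK-Ab-Cryptate, 1 h, HTRF. IC50 = 50 POC on 4PL fit.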

ErbB2 WT = ErbB2 WT (Homo sapiens (Human), UniProt P04626); test: ErbB enzyme assay (CisBio HTRF KinEASE-TK), Assay 2; assay type: biochemical
Outline: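 ErbB2 phosphorylates 250 nM biotin-TK substrate at 1 mM ATP in 25 mM HEPES pH 7.4, 10 mM MgCl2, 0.01% Triton X-100 and 2% DMSO, for 30 min at 22 °C. Product is detected by HTRF with Sa-XL665 and TK-Ab-Cryptate. Percent of control is set by DMSO-only wells and pre-quenched wells.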

BCRP = BCRP (Homo sapiens (Human), UniProt Q9UNQ0); test: BCRP transfected MDCKII canine Mdr1 knockout permeability/efflux, Assay 9; details: dog
BCRP, sequence (Q9UNQ0 whole entry): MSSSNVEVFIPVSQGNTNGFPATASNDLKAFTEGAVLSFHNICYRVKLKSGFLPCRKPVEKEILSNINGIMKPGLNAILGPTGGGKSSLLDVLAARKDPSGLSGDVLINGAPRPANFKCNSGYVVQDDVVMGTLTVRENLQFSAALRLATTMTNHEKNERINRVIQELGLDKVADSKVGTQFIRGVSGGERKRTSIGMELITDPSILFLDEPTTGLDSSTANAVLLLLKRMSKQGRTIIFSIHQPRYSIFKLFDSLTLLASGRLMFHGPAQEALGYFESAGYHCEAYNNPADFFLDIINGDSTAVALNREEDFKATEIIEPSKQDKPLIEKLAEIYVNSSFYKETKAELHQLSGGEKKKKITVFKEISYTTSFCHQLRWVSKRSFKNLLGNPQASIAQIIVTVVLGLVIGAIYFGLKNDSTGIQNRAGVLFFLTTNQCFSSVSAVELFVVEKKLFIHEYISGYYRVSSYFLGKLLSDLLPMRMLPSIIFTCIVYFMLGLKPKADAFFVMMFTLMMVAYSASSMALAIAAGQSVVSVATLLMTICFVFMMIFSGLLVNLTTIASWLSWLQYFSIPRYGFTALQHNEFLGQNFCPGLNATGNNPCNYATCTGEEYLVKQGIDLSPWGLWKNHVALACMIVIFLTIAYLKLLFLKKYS
Procedure: BCRP transfected MDCKII cells (Assay 8) and BCRP transfected MDCKII canine Mdr1 knockout cells (Assay 9) were cultured and plated according to manufacturer's recommendations.
as §1, §2
The plates were read using a Molecular Devices (Sunnyvale, CA) Gemini Fluorometer to evaluate the lucifer yellow concentrations at excitation/emission wavelengths of 425/535 nm. […] The plates were sealed, and the contents of each well analyzed by LC MS/MS. The compound concentrations were determined from the ratio of the peak areas of the compound to the internal standard (labetalol) in comparison to the dosing solution.
as §3, §4, §5

[2] = target: ErbB2 insYVMA (HER2-YVMA, SEQ ID NO: 2) (Homo sapiens, UniProt P04626, INS775YVMA/P1170A); test: biochemical; details: ErbB2 insYVMA enzyme assay; read-out: Assay 1 IC50
ErbB2 insYVMA (HER2-YVMA, SEQ ID NO: 2), sequence (P04626 with tags, fused parts or gaps INS775YVMA/P1170A limits assumed): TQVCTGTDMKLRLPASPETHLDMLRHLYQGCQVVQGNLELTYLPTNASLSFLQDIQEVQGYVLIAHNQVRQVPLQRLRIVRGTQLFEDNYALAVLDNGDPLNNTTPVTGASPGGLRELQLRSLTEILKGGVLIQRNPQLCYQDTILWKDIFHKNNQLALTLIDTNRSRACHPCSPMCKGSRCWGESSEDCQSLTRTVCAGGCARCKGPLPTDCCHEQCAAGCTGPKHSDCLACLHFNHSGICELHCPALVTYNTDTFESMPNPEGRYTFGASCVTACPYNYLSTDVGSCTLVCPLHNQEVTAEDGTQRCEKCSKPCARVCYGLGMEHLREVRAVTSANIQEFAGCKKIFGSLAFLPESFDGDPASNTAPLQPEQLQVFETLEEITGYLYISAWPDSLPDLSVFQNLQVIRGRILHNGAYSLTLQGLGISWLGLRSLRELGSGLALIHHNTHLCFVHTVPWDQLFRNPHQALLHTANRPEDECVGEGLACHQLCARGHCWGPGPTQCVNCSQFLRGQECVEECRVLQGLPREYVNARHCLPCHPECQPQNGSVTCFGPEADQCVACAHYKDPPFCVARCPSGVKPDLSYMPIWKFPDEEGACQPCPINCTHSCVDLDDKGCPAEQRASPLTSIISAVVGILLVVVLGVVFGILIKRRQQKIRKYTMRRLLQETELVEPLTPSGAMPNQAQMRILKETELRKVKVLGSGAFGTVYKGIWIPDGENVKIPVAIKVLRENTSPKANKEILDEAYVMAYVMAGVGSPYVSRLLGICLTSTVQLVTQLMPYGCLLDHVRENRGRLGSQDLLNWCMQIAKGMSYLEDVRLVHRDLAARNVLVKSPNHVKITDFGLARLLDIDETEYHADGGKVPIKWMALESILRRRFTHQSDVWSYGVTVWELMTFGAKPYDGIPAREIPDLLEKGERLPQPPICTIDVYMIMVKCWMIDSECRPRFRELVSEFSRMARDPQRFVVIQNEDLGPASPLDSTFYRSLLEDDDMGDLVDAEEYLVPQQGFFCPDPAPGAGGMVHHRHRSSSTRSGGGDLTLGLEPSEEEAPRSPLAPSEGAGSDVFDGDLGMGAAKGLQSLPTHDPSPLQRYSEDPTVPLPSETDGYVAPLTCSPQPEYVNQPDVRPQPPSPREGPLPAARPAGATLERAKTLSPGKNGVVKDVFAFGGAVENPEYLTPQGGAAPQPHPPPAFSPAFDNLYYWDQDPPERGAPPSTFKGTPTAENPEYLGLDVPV

[3] = Assay 9 Pe Ratio, efflux ratio Papp(B-A)/Papp(A-B), BCRP transfected MDCKII canine Mdr1 knockout

MDR1 (P-gp), sequence (P08183 whole entry): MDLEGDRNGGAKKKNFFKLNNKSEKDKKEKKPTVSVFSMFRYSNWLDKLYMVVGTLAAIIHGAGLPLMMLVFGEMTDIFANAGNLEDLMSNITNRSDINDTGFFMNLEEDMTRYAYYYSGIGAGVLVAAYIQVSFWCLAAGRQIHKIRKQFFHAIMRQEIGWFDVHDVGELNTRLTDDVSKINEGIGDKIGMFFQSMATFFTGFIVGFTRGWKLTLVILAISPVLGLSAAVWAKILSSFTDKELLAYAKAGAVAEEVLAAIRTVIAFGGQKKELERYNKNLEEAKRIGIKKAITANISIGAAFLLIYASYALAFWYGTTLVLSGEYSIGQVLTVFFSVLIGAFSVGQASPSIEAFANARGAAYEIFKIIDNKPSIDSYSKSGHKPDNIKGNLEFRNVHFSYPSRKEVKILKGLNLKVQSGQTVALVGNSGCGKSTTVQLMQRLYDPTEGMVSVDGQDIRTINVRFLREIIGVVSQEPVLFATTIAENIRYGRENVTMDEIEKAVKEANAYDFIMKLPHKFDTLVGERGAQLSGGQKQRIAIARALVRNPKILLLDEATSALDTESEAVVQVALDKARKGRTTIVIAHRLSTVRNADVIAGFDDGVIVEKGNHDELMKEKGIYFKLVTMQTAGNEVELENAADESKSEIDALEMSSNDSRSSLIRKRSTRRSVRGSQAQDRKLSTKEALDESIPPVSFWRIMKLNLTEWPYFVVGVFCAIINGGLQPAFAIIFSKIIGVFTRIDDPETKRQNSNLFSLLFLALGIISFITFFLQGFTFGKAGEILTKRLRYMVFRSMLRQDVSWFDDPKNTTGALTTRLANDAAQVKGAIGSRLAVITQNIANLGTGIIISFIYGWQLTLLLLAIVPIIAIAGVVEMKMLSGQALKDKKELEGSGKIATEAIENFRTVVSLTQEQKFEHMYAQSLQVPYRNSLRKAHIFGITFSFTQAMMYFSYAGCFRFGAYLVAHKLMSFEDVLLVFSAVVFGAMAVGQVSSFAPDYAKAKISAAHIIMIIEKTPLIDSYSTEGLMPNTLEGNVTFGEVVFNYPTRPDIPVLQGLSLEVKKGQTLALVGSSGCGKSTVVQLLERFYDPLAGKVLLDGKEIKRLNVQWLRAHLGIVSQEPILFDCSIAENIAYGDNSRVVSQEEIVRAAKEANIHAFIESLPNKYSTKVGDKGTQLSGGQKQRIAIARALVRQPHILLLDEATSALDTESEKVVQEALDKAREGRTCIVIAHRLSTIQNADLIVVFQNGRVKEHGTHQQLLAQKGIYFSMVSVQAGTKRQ

SMILES | efflux ratio at 2 h, 1 μM (MDR1 (P-gp)) | IC50 [1] [nM] | IC50 (EGFR wild type (EGFR WT)) [nM] | IC50 (EGFR) [nM] | IC50 (ErbB2 WT) [nM] | efflux ratio at 2 h, 1 μM (BCRP; [3]) | IC50 [2] [nM] | efflux ratio at 2 h, 1 μM (BCRP)
COC[C@H](O)CN(C)c1ncc2ncnc(Nc3ccc(Oc4ccc5c(c4)ncn5C)c(C)c3)c2n1 (racemic) [Example 100, rac-(R)-1-methoxy-3-(methyl(8-((3-methyl-4-((1-methyl-1H-benzo[d]imidazol-5-yl)oxy)phenyl)amino)pyrimido[5,4-d]pyrimidin-2-yl)amino)propan-2-ol] | 1.5 | 21.1 | ≥ 5000 | 4150 | 31.8 | 18.2 | 28.8 | –
Cc1cc(Nc2ncnc3cnc(N4CC[C@@](O)(C(F)F)C4)nc23)ccc1Oc1ccc2c(c1)ncn2C (racemic) [Example 106, rac-(R)-3-(difluoromethyl)-1-(8-((3-methyl-4-((1-methyl-1H-benzo[d]imidazol-5-yl)oxy)phenyl)amino)pyrimido[5,4-d]pyrimidin-2-yl)pyrrolidin-3-ol] | 2.6 | 18.4 | ≥ 5000 | 2840 | 16.6 | 24.3 | 16.8 | –
Cc1cc(Nc2ncnc3cnc(N4CC[C@@]45CCOC5)nc23)ccc1Oc1ccc2c(c1)ncn2C (single isomer, unassigned) [Example 93a] | 1.3 | 20.6 | ≥ 5000 | 1460 | 16 | – | 17 | 1.9
Cc1cc(Nc2ncnc3cnc(N4C[C@@H](F)[C@@H](O)C4)nc23)ccc1Oc1ccc2c(c1)ncn2C [Example 91, (3S,4R)-4-fluoro-1-(8-((3-methyl-4-((1-methyl-1H-benzo[d]imidazol-5-yl)oxy)phenyl)amino)pyrimido[5,4-d]pyrimidin-2-yl)pyrrolidin-3-ol] | 2.5 | 14.1 | ≥ 5000 | 6830 | 20.6 | 50.1 | 12.8 | –
Cc1cc(Nc2ncnc3cnc(N4CC[C@@](C)(O)C4)nc23)ccc1Oc1ccn2ncnc2c1 [Example 110, (R)-1-(8-((4-([1,2,4]triazolo[1,5-a]pyridin-7-yloxy)-3-methylphenyl)amino)pyrimido[5,4-d]pyrimidin-2-yl)-3-methylpyrrolidin-3-ol] | 1.9 | 61.7 | ≥ 5000 | 3170 | 32.8 | 32.2 | 33.5 | –
Cn1cnc2cc(Oc3ccc(Nc4ncnc5cnc(N6CC[C@@H](CC#N)C6)nc45)cc3Cl)ccc21 [Example 134, (S)-2-(1-(8-((3-chloro-4-((1-methyl-1H-benzo[d]imidazol-5-yl)oxy)phenyl)amino)pyrimido[5,4-d]pyrimidin-2-yl)pyrrolidin-3-yl)acetonitrile] | 1.8 | 8.5 | ≥ 5000 | ≥ 10000 | – | 6.8 | 55.1 | –
Cc1cc(Nc2ncnc3cnc(N(C)[C@H]4C[C@@](C)(O)C4)nc23)ccc1Oc1ccc2c(c1)ncn2C [Example 165, (1s, 3s)-1-methyl-3-(methyl(8-((3-methyl-4-((1-methyl-1H-benzo[d]imidazol-5-yl)oxy)phenyl)amino)pyrimido[5,4-d]pyrimidin-2-yl)amino)cyclobutan-1-ol] | 2.1 | 11.4 | ≥ 5000 | 216 | 5.6 | – | 7.5 | –
Cc1cc(Nc2ncnc3cnc(N4C[C@@H](C)[C@H](O)C4)nc23)ccc1Oc1ccc2c(c1)ncn2C [Example 167, (3S,4R)-4-methyl-1-(8-((3-methyl-4-((1-methyl-1H-benzo[d]imidazol-5-yl)oxy)phenyl)amino)pyrimido[5,4-d]pyrimidin-2-yl)pyrrolidin-3-ol] | 2.8 | 24.2 | ≥ 5000 | 9050 | 34.6 | – | 17.7 | –
Cc1cc(Nc2ncnc3cnc(N4CC[C@@H](O)C4)nc23)ccc1Oc1ccc2c(c1)ncn2C [Example 169, (R)-1-(8-((3-methyl-4-((1-methyl-1H-benzo[d]imidazol-5-yl)oxy)phenyl)amino)pyrimido[5,4-d]pyrimidin-2-yl)pyrrolidin-3-ol] | 3.6 | 4.7 | ≥ 5000 | 1630 | 11.2 | – | 8.5 | –
Cc1cc(Nc2ncnc3cnc(N4CC[C@H](O)C4)nc23)ccc1Oc1ccc2c(c1)ncn2C [Example 174, (S)-1-(8-((3-methyl-4-((1-methyl-1H-benzo[d]imidazol-5-yl)oxy)phenyl)amino)pyrimido[5,4-d]pyrimidin-2-yl)pyrrolidin-3-ol] | 3.1 | 8 | ≥ 5000 | 2770 | 31.4 | – | 11.5 | –
Cc1cc(Nc2ncnc3cnc(N4CCC(CC#N)C4)nc23)ccc1Oc1ccc2c(c1)ncn2C (centres unmarked) [Example 192, 2-(1-(8-((3-methyl-4-((1-methyl-1H-benzo[d]imidazol-5-yl)oxy)phenyl)amino)pyrimido[5,4-d]pyrimidin-2-yl)pyrrolidin-3-yl)acetonitrile] | 1.6 | 13.1 | ≥ 5000 | ≥ 10000 | 44.8 | – | 19.1 | –
Cc1cc(Nc2ncnc3cnc(N4CCNC(=O)C4)nc23)ccc1Oc1ccc2c(c1)ncn2C [Example 198, 4-(8-((3-methyl-4-((1-methyl-1H-benzo[d]imidazol-5-yl)oxy)phenyl)amino)pyrimido[5,4-d]pyrimidin-2-yl)piperazin-2-one] | 10.7 | 37.6 | ≥ 5000 | 3300 | 21.9 | – | 20 | –
Cc1cc(Nc2ncnc3cnc(N4CC5(CC(O)C5)C4)nc23)ccc1Oc1ccc2c(c1)ncn2C [Example 213, 2-(8-((3-methyl-4-((1-methyl-1H-benzo[d]imidazol-5-yl)oxy)phenyl)amino)pyrimido[5,4-d]pyrimidin-2-yl)-2-azaspiro[3.3]heptan-6-ol] | 2.4 | 34.1 | ≥ 5000 | ≥ 10000 | 33.9 | – | 19.7 | –
Cc1cc(Nc2ncnc3cnc(N[C@@H]4CNCC4(F)F)nc23)ccc1Oc1ccc2c(c1)ncn2C [Example 297] | 3.2 | 29.4 | ≥ 5000 | 3320 | 40 | – | 17.6 | –
Cc1cc(Nc2ncnc3cnc(NCC4(O)COC4)nc23)ccc1Oc1ccc2c(c1)ncn2C [Example 319] | 10.6 | 26.3 | ≥ 5000 | 870 | 4.5 | – | 16.7 | –
CN(c1ncc2ncnc(Nc3ccc(Oc4ccn5ncnc5c4)c(Cl)c3)c2n1)[C@H]1CCCOC1 [Example 360] | 1.3 | 29.8 | ≥ 5000 | ≥ 10000 | 25.5 | – | 24.9 | –
CC1(O)CCN(c2ncc3ncnc(Nc4ccc(Oc5ccn6ncnc6c5)c(Cl)c4)c3n2)CC1 [Example 435] | 1.2 | 34.7 | ≥ 5000 | 4910 | 32.8 | – | 11.8 | –
Cc1cc(Nc2ncnc3cnc(N4CC[C@H](CC#N)C4)nc23)ccc1Oc1ccc2c(c1)ncn2C [Example 469] | 1.6 | 13.1 | ≥ 5000 | ≥ 10000 | 44.8 | – | 19.1 | –
Cc1cc(Nc2ncnc3cnc(N4C[C@@H]5C[C@H]4C[C@@H]5O)nc23)ccc1Oc1ccc2c(c1)ncn2C [Example 470] | 2.5 | 24.3 | ≥ 5000 | 6840 | 52.3 | – | 38.3 | –
Cn1cnc2cc(Oc3ccc(Nc4ncnc5cnc(N6CCN(C7COC7)CC6)nc45)cc3Cl)ccc21 [Example 485] | 1.3 | 11.1 | ≥ 5000 | ≥ 10000 | 77.2 | – | 21.7 | –
